Among the test systems are M14; UO-31; NCI-H23; KM12; Hs-578T; A498; Malme-3M; MDA-MB-231; SF-539; CCRF-CEM; RPMI-8226; 786-0; OVCAR-5; SK-MEL-5; HL-60; PC-3; NCI/ADR-RES; SN12C; HT-29; U-251.
What all share (assay): NCI tumour cell line growth inhibition, 48 h

We go through six molecules from ChEMBL document CHEMBL1201862, “PubChem BioAssay data set” (2004).

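Cells were grown in 96-well plates and exposed to each compound for 48 hours at five concentrations; endpoints were interpolated linearly between bracketing concentrations, or set to the highest concentration if not reached. Here, GI50 denotes the concentration required for 50% inhibition of growth.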 Activity calls are given as the source filed them. No stated cut-off is given here; in the data, active = GI50 up to about 1.1 µM and inactive = higher. Square brackets hold non-standard residues; d marks the D form. Peptide text beside a SMILES is read from it. * marks the point of attachment. NMeV = CN[C@H](C(=O)O)C(C)C; X28 = COc1ccc(CN*)c(OC)c1; Octanoyl = CCCCCCCC(=O)*; dNMeA = CN[C@H](C)C(=O)O Some results are limits rather than exact numbers.

Regarding `CC1CC(N2CCOCC2)=Nc2ccccc2N1C` (stereo not given), the GI50 in the test on M14 was > 100 µM (inactive); in the test with UO-31 it was > 100 µM (inactive); in the test on NCI-H23, 80 µM (inactive); with KM12 it was > 100 µM (inactive); in the test with Hs-578T, > 100 µM (inactive); with A498, > 100 µM (inactive). In addition, the GI50 was 56.4 µM (inactive) in the test on Malme-3M; > 100 µM (inactive) with MDA-MB-231; > 100 µM (inactive) in the test on SF-539; > 100 µM (inactive) in the test with CCRF-CEM; > 100 µM (inactive) with RPMI-8226; > 100 µM (inactive) in the test on 786-0. For the same molecule, the GI50 with OVCAR-5, in the test with SK-MEL-5, in the test with HL-60, in the test on PC-3, with NCI/ADR-RES and with SN12C was > 100 µM (inactive) in each case. The GI50 with HT-29 and in the test with U-251 was > 100 µM (inactive) throughout.
On to `CC(C)OC(=O)NNc1cc(Cl)ccc1Cl`, for which the GI50 with M14 was > 100 µM (inactive); with UO-31, > 100 µM (inactive); in the test with NCI-H23, > 100 µM (inactive); in the test on KM12 it was 65.3 µM (inactive); in the test on Hs-578T, 81.5 µM (inactive); in the test on A498, 24.3 µM (inactive). Also, the GI50 was 35.6 µM (inactive) in the test on Malme-3M; > 100 µM (inactive) in the test on MDA-MB-231; > 100 µM (inactive) with SF-539; 59.7 µM (inactive) with CCRF-CEM; 44.5 µM (inactive) in the test on RPMI-8226; > 100 µM (inactive) with 786-0. The GI50 in the test on OVCAR-5 was > 100 µM (inactive); in the test with SK-MEL-5, 39.4 µM (inactive); with HL-60, 21.7 µM (inactive); in the test on PC-3, 56.8 µM (inactive); in the test with NCI/ADR-RES, > 100 µM (inactive); in the test on SN12C it was > 100 µM (inactive). For the same molecule, the GI50 in the test on HT-29 and in the test on U-251 was > 100 µM (inactive) throughout.
For the molecule `O=c1cc(-c2ccccc2)[nH]c2ccc(N3CCCC3)cc12`, the GI50 with M14 was < 0.0123 µM (active); in the test with UO-31 it was > 100 µM (inactive); in the test with NCI-H23, 0.299 µM (active); in the test with KM12 it was 0.039 µM (active); with Hs-578T, < 0.0173 µM (active); in the test on A498, 0.0272 µM (active). Also, the GI50 is > 100 µM (inactive) with Malme-3M; 0.103 µM (active) with MDA-MB-231; 0.0123 µM (active) with SF-539; < 0.0149 µM (active) with CCRF-CEM; 0.0366 µM (active) with RPMI-8226; < 0.0114 µM (active) in the test with 786-0. Further, the GI50 in the test on OVCAR-5 was 31.6 µM (inactive); with SK-MEL-5, 0.0366 µM (active); with HL-60, < 0.01 µM (active); with PC-3, 0.0282 µM (active); in the test on NCI/ADR-RES it was 0.0159 µM (active); in the test with SN12C, 0.0451 µM (active). The GI50 in the test with HT-29 was 0.0146 µM (active); in the test with U-251, 0.0102 µM (active).
In the case of `CCCCCCCC(=O)N[C@H](C(=O)N[C@H](C(=O)N(C)[C@H](C(=O)N1CCC[C@H]1C(=O)N(C)[C@H](C)C(=O)NCc1ccc(OC)cc1OC)C(C)C)C(C)C)C(C)C` (Octanoyl-VV[NMeV]P[dNMeA]-X28), the GI50 in the test with M14 was 7.82 µM (inactive); with UO-31, 17.6 µM (inactive); with NCI-H23 it was 13.6 µM (inactive); in the test with KM12 it was 4.62 µM (inactive); in the test on Hs-578T it was 9.16 µM (inactive); in the test on A498, 1.95 µM (inactive). Besides, the GI50 with Malme-3M was 8.17 µM (inactive); in the test with MDA-MB-231, 10.5 µM (inactive); in the test on SF-539 it was 18.8 µM (inactive); with CCRF-CEM, 11.5 µM (inactive); with RPMI-8226 it was 3.02 µM (inactive); in the test on 786-0, 23.2 µM (inactive). In addition, the GI50 in the test on OVCAR-5 is 25.5 µM (inactive); with SK-MEL-5 it was 3.3 µM (inactive); in the test with HL-60 it was 3.68 µM (inactive); in the test on PC-3, 7.01 µM (inactive); with NCI/ADR-RES, 42.1 µM (inactive); in the test with SN12C it was 18 µM (inactive). Further, the GI50 was 4.23 µM (inactive) in the test on HT-29 and 4.79 µM (inactive) in the test with U-251.
Regarding `C=C1C(=O)O[C@H]2[C@H]1[C@H](OC(=O)/C(C)=C\C)C[C@]1(CO1)[C@@H]1[C@H](OC(C)=O)C=C(C)[C@]21O` [EUPAROTIN ACETATE], the GI50 with M14 is 21.6 µM (inactive); with UO-31, 13.7 µM (inactive); with NCI-H23 it was 23.2 µM (inactive); in the test on KM12, 19 µM (inactive); in the test with Hs-578T it was > 56.2 µM (inactive); in the test on A498 it was 1.24 µM (inactive). Also, the GI50 in the test on Malme-3M is 13.5 µM (inactive); in the test with MDA-MB-231, 16.5 µM (inactive); in the test with SF-539 it was 30.3 µM (inactive); in the test on CCRF-CEM, 2.36 µM (inactive); in the test with RPMI-8226, 4.82 µM (inactive); in the test with 786-0, 7.46 µM (inactive). Moreover, the GI50 in the test on OVCAR-5 was 25.4 µM (inactive); in the test on SK-MEL-5 it was 17 µM (inactive); in the test on HL-60, 2.66 µM (inactive); in the test on PC-3, 23.1 µM (inactive); with NCI/ADR-RES, 21.5 µM (inactive); in the test on SN12C, 14 µM (inactive). The figures for the GI50 with HT-29 and in the test with U-251 were 12.4 µM (inactive) and 21.9 µM (inactive), respectively.
In the case of `C[C@]12CC[C@H]3[C@@H](CC[C@]4(O)C[C@@H](O)CC[C@]34C=O)[C@@]1(O)CC[C@@H]2C1=CC(=O)OC1` [STROPHANTHIDIN], the GI50 in the test on M14 was 1.07 µM (active); in the test on UO-31, 0.444 µM (active); with NCI-H23 it was 0.265 µM (active); in the test on KM12, 1.94 µM (inactive); in the test on Hs-578T it was 0.682 µM (active); in the test with A498 it was 0.562 µM (active). Besides, the GI50 in the test with Malme-3M was 0.435 µM (active); in the test on MDA-MB-231 it was 2.65 µM (inactive); in the test with SF-539 it was 0.294 µM (active); in the test with CCRF-CEM it was 0.488 µM (active); in the test with RPMI-8226, 0.506 µM (active); in the test with 786-0 it was 0.321 µM (active). Besides, the GI50 in the test with OVCAR-5 is 1.42 µM (inactive); with SK-MEL-5, 0.288 µM (active); with HL-60, 0.347 µM (active); with PC-3, 0.453 µM (active); in the test with NCI/ADR-RES, 0.403 µM (active); with SN12C, 0.418 µM (active). The GI50 in the test with HT-29 was 0.406 µM (active); with U-251, 0.698 µM (active).
